Values of other authors as cited in EP4660212A1, “POLYVINYL ALCOHOL-BASED POLYMER” (Japan Vam & Poval Co., Ltd., priority 2023, dated 2024).

Settings: water at 20°C

Row | Compound | solubility in 100 mL (100 g) of water
1 | c1ccc2cc3ccccc3cc2c1 [anthracene] | about 0.13 mg/100 g water
2 | CCOc1ccccc1C(N)=O [ethenzamide] | about 100 mg/100 g water
